Experimental data taken from publication PMC12163635, “Synthetic Retinoids for the Modulation of Genomic and Nongenomic Processes in Neurodegenerative Diseases” (ACS Omega, 2025).

Each molecule was assayed against T1, RARα (Homo sapiens, UniProt P10276) (assay: Fluorescence competition binding assay (displacement of DC271)). Details: log-log plot of K D for RARα and RARγ.
T1 sequence (P10276 182-417): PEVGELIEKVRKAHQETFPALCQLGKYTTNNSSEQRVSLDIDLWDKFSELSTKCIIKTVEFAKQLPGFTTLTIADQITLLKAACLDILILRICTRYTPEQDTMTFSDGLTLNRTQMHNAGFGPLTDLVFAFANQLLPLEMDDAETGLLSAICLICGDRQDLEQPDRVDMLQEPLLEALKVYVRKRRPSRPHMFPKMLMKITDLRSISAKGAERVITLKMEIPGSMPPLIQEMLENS
Description: Fluorescence competition assays were employed to determine the relative binding affinities of each synthetic retinoid toward the LBD of the RARs. The assay is based on the potential for competitive displacement of the inherently fluorescent retinoid DC271 from the LBP by a test nonfluorescent synthetic retinoid. Changes in the fluorescence were measured following the addition of a serial dilution of the test compound and the results were plotted to generate a binding curve. […] Assays were performed for both RARα and RARγ. […] Nonlinear least-squares regression analyses were performed to calculate binding affinities and reported as binding K D, the equilibrium dissociation constant between the RAR isoform and the test synthetic retinoid.
RARα/γ proteins were expressed in BL21(DE3) cells (NEB) transformed into pET50b (Novagen) and pOPINS3C vectors, respectively, carrying the gene construct and containing a His6-3C-NusA tag or His6-3C-SUMO tag used for solubility. Transformations were carried out under standard conditions using Quick Transformation Protocol (New England Biolabs). Successful transformants were grown overnight in 2xYT media (Melford) and frozen for storage at −80 °C in 50% glycerol. Expression cultures were inoculated from glycerol stocks into 25 mL of 2xYT media (Melford) with 50 μg/mL kanamycin or 100 μg/mL ampicillin (Sigma-Aldrich) and grown overnight with shaking (37 °C, 150 rpm). The overnight cultures were transferred into 1 L expression flasks (2xYT/ampicillin 100 μg/mL or 2xYT/kanamycin 50 μg/mL) and grown with shaking at 37 °C, 150 rpm. Induction was carried out at an OD600 of 0.6–0.8, with 1 mL of 1 M IPTG (1 mM in culture), before shaking overnight (20 h) at 18 °C. The resulting cultures were spun down into pellets using an Avanti Hi-Speed centrifuge (JLA 8.1000, 4000 rpm, 30 min, 4 °C), before the supernatant was removed and the bacterial pellet were frozen at −80 °C.
RARα/γ (pET50b or pOPINS3C, BL21(DE3) (NEB)) were resuspended from pellet with 20 mL Wash Buffer (20 mM Tris-HCl, 300 mM NaCl and 20 mM imidazole, pH 8) and the resulting suspension was sonicated on ice (40% power, 2 min, repeated twice with 1 min rest in-between) before centrifuging (Avanti Hi-Speed JA25.50, 20,000 rpm, 1 h, 4 °C). Supernatants were clarified using 0.45 μm syringe filters (Thermo Fisher Scientific). Affinity chromatography and size-exclusion (SEC) chromatography were carried out on AKTA Pure25 (Cytiva). Supernatants were loaded onto the HisTrap HP column (5 mL, Cytiva) and washed using 25 mL of wash Buffer. The column was washed with Wash Buffer until UV trace returned to baseline, before RARα/γ was eluted using a gradient of Elution Buffer (20 mM Tris-HCl, 300 mM NaCl, 500 mM imidazole pH 8). The resulting protein-containing fractions were analyzed by SDS-PAGE (200 V, 30 min) using SurePAGE Bis-Tris 12% precast gels (Genscript). Protein concentrations were estimated using absorbance at 280 nm on a DS-11 spectrophotometer (Denovix) with calculated molecular weights and extinction coefficients (Expasy). RAR proteins were cleaved overnight from 3C-NusA tag or 3C-SUMO-His tag using 1 Unit/100 μg protein of HRV3C protease (Thermo Fisher Scientific) at 4 °C. Solution after digestion was loaded onto a HiLoad 16/600 Superdex 75 prep-grade column (Cytiva) and cleaved RARα/γ was separated from the tag based on molecular weight and eluted from the column using SEC Buffer (20 mM Tris-HCl, 300 mM NaCl and 0.5 mM TCEP, pH 8) into 2 mL fractions. The resulting protein fractions were analyzed by SDS PAGE (200 V, 30 min) using SurePAGE Bis-Tris 12% precast gels (Genscript), before being concentrated to 5 mg/mL using centrifugal concentrators (Sartorius) and frozen at −80 °C in small aliquots for use in binding assays.

**Q.** With `Cc1sc(-c2ccc(C(=O)O)cc2)nc1-c1ccc2c(c1)C(C)(C)CCC2(C)C` [GZ25, reference compound] as the molecule, how does the “binding preference RARα versus RARγ (from K D)” value read?
**A.** bind RARγ stronger than RARα

Same assay, conditions: stated for the RARs (RARα and RARγ) together; read-out: K D, binding to the RARs

**Q.** `Cc1sc(-c2ccc(C(=O)O)cc2F)nc1-c1cnc2c(n1)C(C)(C)CCC2(C)C` [Compound 43, 3-Fluoro-4-[5-methyl-4-(5,5,8,8-tetramethyl-5,6,7,8-tetrahydroquinoxalin-2-yl)-1,3-thiazol-2-yl]benzoic Acid] was tested. Which Kd did it give?
**A.** > 1000 nM

**Q.** How did the Kd turn out when `Cc1sc(-c2ccc(C(=O)O)cc2)nc1-c1cnc2c(n1)C(C)(C)CCC2(C)C` [Compound 40, 4-[5-Methyl-4-(5,5,8,8-tetramethyl-5,6,7,8-tetrahydroquinoxalin-2-yl)-1,3-thiazol-2-yl]benzoic Acid] was run?
**A.** 100 to 1000 nM

**Q.** `CC1(C)CCC(C)(C)c2nc(C#Cc3ccc(C(=O)O)cc3)cnc21` [Compound 30, 4-[2-(5,5,8,8-Tetramethyl-5,6,7,8-tetrahydroquinoxalin-2-yl)ethynyl]benzoic Acid] was tested. Which Kd did it give?
**A.** 100 to 1000 nM

**Q.** `Cc1cc2c(cc1C#Cc1ncc(C(=O)O)cn1)C(C)(C)CCC2(C)C` [Compound 28, 2-[2-(3,5,5,8,8-Pentamethyl-5,6,7,8-tetrahydronaphthalen-2-yl)ethynyl]pyrimidine-5-carboxylic Acid] was tested. Which Kd did it give?
**A.** 100 to 1000 nM

**Q.** `CC1(C)CCC(C)(C)c2nc(C#Cc3ccc(C(=O)O)cc3F)cnc21` [Compound 31, 3-Fluoro-4-[2-(5,5,8,8-tetramethyl-5,6,7,8-tetrahydroquinoxalin-2-yl)ethynyl]benzoic Acid] was tested. Which Kd did it give?
**A.** 100 to 1000 nM

**Q.** Which Kd does the source give for `COc1cc2c(cc1C#Cc1ccc(C(=O)O)cn1)C(C)(C)CCC2(C)C` [Compound 27, 6-[2-(3-Methoxy-5,5,8,8-tetramethyl-5,6,7,8-tetrahydronaphthalen-2-yl)ethynyl]pyridine-3-carboxylic Acid] here?
**A.** > 1000 nM

**Q.** Which Kd does the source give for `Cc1sc(-c2ccc(C(=O)O)cc2)nc1-c1ccc2c(c1)C(C)(C)CCC2(C)C` [GZ25, reference compound] here?
**A.** 100 to 1000 nM

**Q.** For `COc1cc2c(cc1C#Cc1cc(F)c(C(=O)O)c(F)c1)C(C)(C)CCC2(C)C` [Compound 22, 2,6-Difluoro-4-[2-(3-methoxy-5,5,8,8-tetramethyl-5,6,7,8-tetrahydronaphthalen-2-yl)ethynyl]benzoic Acid], which Kd is on record?
**A.** 100 to 1000 nM

**Q.** `Cc1sc(-c2ccc(C(=O)O)c(F)c2)nc1-c1cnc2c(n1)C(C)(C)CCC2(C)C` [Compound 42, 2-Fluoro-4-[5-methyl-4-(5,5,8,8-tetramethyl-5,6,7,8-tetrahydroquinoxalin-2-yl)-1,3-thiazol-2-yl]benzoic Acid] was tested. Which Kd did it give?
**A.** 100 to 1000 nM
